From ChEMBL document CHEMBL4219196, “Next-generation small molecule therapies for heart failure: 2015 and beyond” (2018) come the findings set out here.

Molecules are shown by their SMILES. Bounds are passed on as bounds.

What all share (format): functional
The test system of experiment [1] is Homo sapiens. The experiment can be described thus: Reduction of cardiovascular events in patient with severe chronic heart failure assessed as reduction in heart rate at 7.5 mg, po bid for 14 days.
For experiment [2], the system named is Homo sapiens. The experiment can be described thus: Reduction of cardiovascular events in patient with acute MI and coronary revascularization assessed as reduction in death at 7.5 mg, po bid. On the set-up: scale not given: the % may be the effect or the level left.
In experiment [3] the test system is Homo sapiens. The experiment can be described thus: Reduction of cardiovascular events in patient with severe chronic heart failure and left ventricular systolic dysfunction assessed as relative risk reduction at 7.5 mg, po bid for 14 days. Also on record: scale not given: the % may be the effect or the level left.
Experiment [4] relates to Homo sapiens. Briefly: Reduction of cardiovascular events in patient with coronary artery disease and left ventricular systolic dysfunction assessed as relative risk reduction at 7.5 mg, po bid. On the set-up: scale not given: the % may be the effect or the level left.
The subject of experiment [5] is Homo sapiens. Briefly: Reduction of cardiovascular events in patient with acute MI and coronary revascularization assessed as reduction in heart rate at 7.5 mg, po bid.
For experiment [6], the system named is Homo sapiens. The experiment can be described thus: Reduction of cardiovascular events in patient with severe chronic heart failure assessed as reduction in death at 7.5 mg, po bid for 14 days. On the set-up: scale not given: the % may be the effect or the level left.

For the compound `COc1cc2c(cc1OC)CC(=O)N(CCCN(C)C[C@H]1Cc3cc(OC)c(OC)cc31)CC2` [IVABRADINE], the Activity is given as 15 bpm with Homo sapiens [1]; 31% in the experiment on Homo sapiens [2]; 18% with Homo sapiens [3]; “<=24%” in the experiment with Homo sapiens [4]; 12 bpm in the experiment with Homo sapiens [5]; 26% in the experiment with Homo sapiens [6].
